This is an account of results in patent US20120028931A1, “HETEROCYCLIC M-GLU5 ANTAGONISTS” (RECORDATI IRELAND LIMITED, priority 2009, published 2012).

The structures appear in SMILES notation.

In one assay the target is T1, mGlu5 receptor (Rattus norvegicus, UniProt P31424).
T1 construct: from tissue; host or cells: forebrain (cortex, striatum and hippocampus) membranes of male Sprague Dawley rats
Description: Radioligand binding assay at metabotropic glutamate receptor 5 in rat brain ([3H]MPEP). The conditions noted are these: rat forebrain membranes, 4 nM [3H]MPEP; Ki from IC50 by Cheng & Prusoff; read-out: affinity (Ki) for mGlu5 receptor. The procedure:
Radioligand Binding Assay at metabotropic glutamate receptor 5 in rat brain.
a) Membrane preparation: male Sprague Dawley rats (200-300 g, Charles River, Italy) were killed by cervical dislocation and the forebrain (cortex, striatum and hippocampus) was homogenized (2×20 sec) in 50 vols of cold 50 mM Tris buffer pH 7.4, using a Politron homogenizer (Kinematica). Homogenates were centrifuged at 48000×g for 15 min, resuspended in 50 vols of the same buffer, incubated at 37° C. for 15 min and centrifuged and resuspended two more times. The final pellets were frozen and stored at −80° C. until use.
b) Binding assay: pellets from rat forebrain were resuspended in 100 vols of 20 mM HEPES, 2 mM MgCl2, 2 mM CaCl2, pH 7.4. The membranes were incubated in a final volume of 1 ml for 60 min at 25° C. with 4 nM [^3H]MPEP in the absence or presence of competing drugs. Non-specific binding was determined in the presence of 10 μM MPEP (Spooren W. et al. Trends Pharmacol Sci. 22, 331-337, 2001). The incubation was stopped by the addition of cold Tris buffer pH 7.4 and rapid filtration through 0.5% polyethyleneimine pretreated Filtermat 1204-401 (Wallac) filters. The filters were then washed with cold buffer and the radioactivity retained on the filters was counted by liquid scintillation spectrometry. […]

In a further assay the test system is conscious rats. Kind of assay: Cystometry in conscious rats. The conditions noted are these: administered orally. In kind it is in vivo, rat. The procedure: Male Sprague-Dawley rats [Crl: CD® (SD) IGS BR] of 300-400 g b.w. supplied by Charles River Italia were used. The animals were housed with free access to food and water and maintained on a forced 12-hour-light/12-hour-dark cycle at 22-24° C. of temperature, except during the experiment. To quantify urodynamic parameters in conscious rats, cystometrographic studies were performed according to the procedure previously reported (Guarneri et al., Pharmacol. Res. 24: 175, 1991).
Briefly, the rats were anaesthetised by intraperitoneal administration of 3 ml/kg of Equithensin solution (pentobarbital 30 mg/kg and chloral hydrate 125 mg/kg) and placed in a supine position. […]
On the day of the experiment, the rats were placed in modified Bollman cages, i.e., restraining cages that were large enough to permit the rats to adopt a normal crouched posture, but narrow enough to prevent turning around. […] The intraluminal-pressure signal during infusion of saline into the bladder (cystometrogram) was continuously recorded on a polygraph (Rectigraph-8K San-ei with BM614/2 amplifier from Biomedica Mangoni) or stored on PC by data acquisition system (PowerLab, Chart 4 software, AD Instruments). From the cystometrogram, bladder volume capacity (BVC) was evaluated. […] Basal BVC value was evaluated as the mean of the values observed in the cystometrograms recorded in an initial period of 30-60 minutes. […]

T1 sequence (P31424 21-1203): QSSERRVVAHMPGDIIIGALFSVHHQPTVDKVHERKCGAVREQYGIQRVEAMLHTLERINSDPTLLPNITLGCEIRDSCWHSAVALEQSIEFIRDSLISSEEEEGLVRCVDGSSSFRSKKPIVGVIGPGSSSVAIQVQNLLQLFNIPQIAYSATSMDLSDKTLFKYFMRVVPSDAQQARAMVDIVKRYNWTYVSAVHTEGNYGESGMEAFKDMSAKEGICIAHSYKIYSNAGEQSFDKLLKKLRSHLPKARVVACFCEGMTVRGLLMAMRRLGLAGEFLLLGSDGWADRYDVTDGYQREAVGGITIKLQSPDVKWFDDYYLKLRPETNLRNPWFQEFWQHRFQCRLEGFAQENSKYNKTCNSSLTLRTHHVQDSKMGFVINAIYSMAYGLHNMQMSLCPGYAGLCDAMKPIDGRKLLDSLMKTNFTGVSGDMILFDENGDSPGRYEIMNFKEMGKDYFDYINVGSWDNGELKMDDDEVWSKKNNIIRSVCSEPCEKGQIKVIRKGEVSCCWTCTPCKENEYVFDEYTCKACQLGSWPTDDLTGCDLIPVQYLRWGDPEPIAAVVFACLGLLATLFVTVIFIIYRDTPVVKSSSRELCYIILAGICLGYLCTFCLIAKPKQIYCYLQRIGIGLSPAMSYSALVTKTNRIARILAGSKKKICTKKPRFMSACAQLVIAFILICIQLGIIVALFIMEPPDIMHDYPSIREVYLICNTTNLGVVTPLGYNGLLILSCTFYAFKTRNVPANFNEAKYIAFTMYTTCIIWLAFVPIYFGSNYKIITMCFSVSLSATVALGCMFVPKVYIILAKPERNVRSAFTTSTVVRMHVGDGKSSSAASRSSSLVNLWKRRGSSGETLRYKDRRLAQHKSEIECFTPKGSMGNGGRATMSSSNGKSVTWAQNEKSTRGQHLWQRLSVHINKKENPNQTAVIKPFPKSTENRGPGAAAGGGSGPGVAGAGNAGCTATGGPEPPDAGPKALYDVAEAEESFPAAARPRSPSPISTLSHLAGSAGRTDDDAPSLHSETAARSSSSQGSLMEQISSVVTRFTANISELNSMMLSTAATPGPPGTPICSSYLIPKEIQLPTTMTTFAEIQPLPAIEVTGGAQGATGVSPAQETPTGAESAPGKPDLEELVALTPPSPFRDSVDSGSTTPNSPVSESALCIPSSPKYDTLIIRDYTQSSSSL

With `Cc1ccc([N+](=O)[O-])c(N2CCC(=Cc3cc(-c4ccco4)n(C)n3)CC2)n1` [Example 1, 1-(6-methyl-3-nitro-2-pyridyl)-4-{[5-(2-furyl)-1-methyl-1H-pyrazol-3-yl]-methylene}-piperidine], the Ki at mGlu5 receptor amounted to 0.37 nM.
Turning to `Cc1ccc([N+](=O)[O-])c(N2CCC(=Cc3noc(-c4cccs4)n3)CC2)n1` [Example 29, 1-(6-methyl-3-nitro-2-pyridyl)-4-{[5-(2-thienyl)-1,2,4-oxadiazol-3-yl]-methylene}-piperidine], in the assay on conscious rats, the “effect on bladder volume capacity (BVC)” value was “effective in increasing the bladder volume capacity”.
